Data as given in BindingDB's records for doi:10.1016/0960-894X(95)00556-9 (1996).
pIC50: −log10 of the molar value.

experiment: Compound was evaluated for its ability to displace [3H]-L-364,718 from Cholecystokinin type A receptor from rat pancreas

Going from Cc1cccc(NC(=O)N[C@@H]2N=C(c3ccccc3)c3ccccc3N(CC(=O)C3CCCC3)C2=O)c1 [1-[(R)-1-(2-Cyclopentyl-2-oxo-ethyl)-2-oxo-5-phenyl-2,3-dihydro-1H-benzo[e][1,4]diazepin-3-yl]-3-m-tolyl-urea] to Cc1cccc(NC(=O)N[C@H]2N=C(c3ccccc3)c3ccccc3N(CC(=O)C3CCCC3)C2=O)c1 [1-[(S)-1-(2-Cyclopentyl-2-oxo-ethyl)-2-oxo-5-phenyl-2,3-dihydro-1H-benzo[e][1,4]diazepin-3-yl]-3-m-tolyl-urea], the pIC50 falls from 6.36 to 5.60 (0.76 log units). The first is the more potent here.

Compared with Cc1cccc(NC(=O)NC2N=C(c3ccccc3)c3ccccc3N(CC(=O)CC3CCCCC3)C2=O)c1 (stereo not drawn) [1-[1-(3-Cyclohexyl-2-oxo-propyl)-2-oxo-5-phenyl-2,3-dihydro-1H-benzo[e][1,4]diazepin-3-yl]-3-m-tolyl-urea], Cc1cccc(NC(=O)NC2N=C(c3ccccc3)c3ccccc3N(CC(=O)C3(C)CCCCC3)C2=O)c1 (stereo not drawn) [1-{1-[2-(1-Methyl-cyclohexyl)-2-oxo-ethyl]-2-oxo-5-phenyl-2,3-dihydro-1H-benzo[e][1,4]diazepin-3-yl}-3-m-tolyl-urea] is lower in pIC50: 6.32 for the first, under 5.00 for the second.

First: Cc1cccc(NC(=O)NC2N=C(c3ccccc3)c3ccccc3N(CC(=O)C(C)C)C2=O)c1 (stereo not drawn) [1-[1-(3-Methyl-2-oxo-butyl)-2-oxo-5-phenyl-2,3-dihydro-1H-benzo[e][1,4]diazepin-3-yl]-3-m-tolyl-urea]
Second: CCC(C)(C)C(=O)CN1C(=O)C(NC(=O)Nc2cccc(C)c2)N=C(c2ccccc2)c2ccccc21 (stereo not drawn) [1-[1-(3,3-Dimethyl-2-oxo-pentyl)-2-oxo-5-phenyl-2,3-dihydro-1H-benzo[e][1,4]diazepin-3-yl]-3-m-tolyl-urea]
The pIC50 of the first is 0.22 log units lower: 5.92 for the first, 6.14 for the second. The second is the more potent here.

With Cc1cccc(NC(=O)NC2N=C(c3ccccc3)c3ccccc3N(CC(=O)C3(C)CCCC3)C2=O)c1 (stereo not drawn) [1-{1-[2-(1-Methyl-cyclopentyl)-2-oxo-ethyl]-2-oxo-5-phenyl-2,3-dihydro-1H-benzo[e][1,4]diazepin-3-yl}-3-m-tolyl-urea] the pIC50 was 6.53.

experiment: Compound was evaluated for its ability to displace [3H]L-364718 from Cholecystokinin type A receptor from rat pancreas at dose of 0.03 umol/kg

Work on Cc1cccc(NC(=O)N[C@@H]2N=C(c3ccccc3)c3ccccc3N(CC(=O)C(C)(C)C)C2=O)c1 [1-[(R)-1-(3,3-Dimethyl-2-oxo-butyl)-2-oxo-5-phenyl-2,3-dihydro-1H-benzo[e][1,4]diazepin-3-yl]-3-m-tolyl-urea] yielded a pIC50 of 6.95.
